Experimental data taken from patent US12053506B2, “Romo1-derived antimicrobial peptides and variants thereof” (priority 2019, dated 2024).
Values after ≈ are worked out from the molar mass of the structure shown. Non-standard residues stand in square brackets, D forms with d. Residues, ends and D or L forms follow the SMILES beside them. No end group written: not given here. Nle = CCCC[C@H](N)C(=O)O

How the values were obtained:
[1] = test system: Pseudomonas aeruginosa (ATCC 27853); assay type: cell-based; details: for MBC Pseudomonas aeruginosa: Tables 11-15, no unit printed; for MBC value (μg/ml) against Pseudomonas aeruginosa: ATCC 27853, 1 h
From the text: (§1) Romo1 protein comprises two α-helices. The present inventors synthesized the α-helix 2 region having both hydrophilicity and hydrophobicity, and evaluated the antibacterial activity thereof using minimum bactericidal concentration (MBC) assay. The α-helix 2 region was named KU-5279 (the 52-79 amino acid region of Romo1 protein). Then, in order to identify peptides that are beneficial for human application and have excellent antibacterial activity, the present inventors synthesized several peptides comprising a sequence of contiguous amino acids starting at any amino acid selected from the 52-79 amino acid region of Romo1 protein, and comparatively evaluated the antibacterial activities of the peptides by minimum bactericidal concentration assay (See Table 1 below for information on each peptide). Evaluation of the antibacterial activity of each peptide by minimum bactericidal concentration assay was specifically performed as follows. First, each of Pseudomonas aeruginosa (ATCC 27853) and Staphylococcus aureus (ATCC 29213) was cultured in 3% (w/v) TSB (Tryptic Soy Broth) liquid medium at 37° C. and 200 rpm for 4 hours, and then further cultured under the same conditions for 3 hours to a concentration of 5×10^6 CFU/ml. Strain solutions were prepared by diluting each of the further cultured strains with SP (sodium phosphate; 10 mM sodium phosphate, 1% TSB) buffer to a final concentration of 2×10^5 CFU/ml. Then, each peptide at varying concentrations (0 μg/ml to 300 μg/ml) was dispensed into each well of a 96-well microplate, and 100 μl (1×10^5 CFU/ml) of each of the prepared strain solutions was added thereto, mixed therewith, and allowed to react with the peptide in an incubator at 37° C. for 1 hour. In addition, 30 g/L of TS (tryptic soy) and 15 g/L of agar were dissolved in distilled water and sterilized, and then 25 ml of the solution was poured onto a 100 mm round plate and solidified at room temperature for one day or more, thereby preparing a TS agar plate. 10 μl of each reaction solution of the peptide and the strain was plated on the TS agar plate at a constant size, and incubated in an incubator at 37° C. for 18 hours, and then colony formation on the plate was checked. The minimum bactericidal concentration was defined as the minimum concentration of the peptide at which no colony was formed, and the experimental results are shown in Table 1 below.

[2] = test system: Staphylococcus aureus (ATCC 29213); assay type: cell-based; details: for MBC Staphylococcus aureus: Tables 11-15, no unit printed; for MBC value (μg/ml) against Staphylococcus aureus: ATCC 29213, 1 h
From the text: as §1

[3] = test system: methicillin-resistant Staphylococcus aureus (ATCC 33591); details: Tables 11-15, no unit printed
Method: First, each of Pseudomonas aeruginosa (ATCC 27853) and Staphylococcus aureus (ATCC 29213) was cultured in 3% (w/v) TSB (Tryptic Soy Broth) liquid medium at 37° C. and 200 rpm for 4 hours, and then further cultured under the same conditions for 3 hours to a concentration of 5×10^6 CFU/ml. Strain solutions were prepared by diluting each of the further cultured strains with SP (sodium phosphate; 10 mM sodium phosphate, 1% TSB) buffer to a final concentration of 2×10^5 CFU/ml.
Then, each peptide at varying concentrations (0 μg/ml to 300 μg/ml) was dispensed into each well of a 96-well microplate, and 100 μl (1×10^5 CFU/ml) of each of the prepared strain solutions was added thereto, mixed therewith, and allowed to react with the peptide in an incubator at 37° C. for 1 hour.
In addition, 30 g/L of TS (tryptic soy) and 15 g/L of agar were dissolved in distilled water and sterilized, and then 25 ml of the solution was poured onto a 100 mm round plate and solidified at room temperature for one day or more, thereby preparing a TS agar plate. 10 μl of each reaction solution of the peptide and the strain was plated on the TS agar plate at a constant size, and incubated in an incubator at 37° C. for 18 hours, and then colony formation on the plate was checked.
Specifically, each type of bacteria was cultured in 3% (w/v) TSB (Tryptic Soy Broth) liquid medium at 37° C. and 200 rpm for 4 hours, and then further cultured under the same conditions for 3 hours to a concentration of 5×10^6 CFU/ml. Strain solutions were prepared by diluting each of the […] of 2×10^5 CFU/ml.
Then, the KU-5878 peptide at varying concentrations (0 μg/ml to 300 μg/ml) was dispensed into each well of a 96-well microplate, and 100 μl (1×10^5 CFU/ml) of each of the prepared strain solutions was added thereto, mixed therewith, and allowed to react with the peptide in an incubator at 37° C. for 1 hour.
In addition, 10 μl of each reaction solution of the peptide and the strain was plated on the TS agar plate at a constant size, and incubated in an incubator at 37° C. for 18 hours, and then colony formation on the plate was checked.

CRPA = assay: MBC, evaluation of antibacterial activities of KU-5878 variants; assay type: cell-based; details: Tables 11-15, no unit printed
Method: Variants were prepared by deleting one amino acid from the amino acid sequence of KU-5878 (SEQ ID NO: 13), and the antibacterial activities thereof were evaluated.
Variants were prepared by deleting two or more amino acids from the amino acid sequence of KU-5878 (SEQ ID NO: 13), and the antibacterial activities thereof were evaluated.
One amino acid in the amino acid sequence of KU-5878 (SEQ ID NO: 13) was substituted, and the antibacterial activities of the peptides were evaluated.
Substitutions of Q62K, S63K and T66K were sequentially added to the amino acid sequence of KU-5878-T59K, and the antibacterial activities of the peptides were evaluated.
An amino acid repeat sequence was added to the C-terminus of KU-5878, and the antibacterial activities of the peptides were evaluated. According to Table 15 below, when the R (arginine) repeat sequence or K (lysine) sequence was added to the C-terminus of KU-5878, the antibacterial activity of the peptide increased.

Compound | MBC Pseudomonas aeruginosa [1] [µg/mL] | MBC Staphylococcus aureus [2] [µg/mL] | MBC MRSA [3] [µg/mL] | MBC CRPA (CRPA) [µg/mL] | MBC value (μg/ml) against Pseudomonas aeruginosa [1] [µg/mL] | MBC value (μg/ml) against Staphylococcus aureus [2] [µg/mL]
KTMMQSGGTFGAFMAIGMGIR [KU-5878-T69A] | 300 | 300 | 300 | 300 |  | 
KTMM-SGGTFGTFMAIGMGIR [Peptide 5878-d62Q] | 100 | 90 | 100 | 100 |  | 
KTMMQSGGHFGTFMAIGMGIR [KU-5878-T66H] | > 300 | > 300 | > 300 | > 300 |  | 
KTMMQSGGAFGTFMAIGMGIR [KU-5878-T66A] | > 300 | > 300 | > 300 | > 300 |  | 
K-MMQSGGTFGTFMAIGMGIR [Peptide 5878-d59T] | 150 | 150 | 150 | 150 |  | 
KTMMQSGGTFG-FMAIGMGIR [Peptide 5878-d69T] | 120 | 120 | 140 | 140 |  | 
CCCC[C@H](NC(=O)CNC(=O)[C@@H](NC(=O)[C@H](C)NC(=O)[C@H](CCCC)NC(=O)[C@H](Cc1ccccc1)NC(=O)[C@@H](NC(=O)CNC(=O)[C@H](Cc1ccccc1)NC(=O)[C@@H](NC(=O)CNC(=O)CNC(=O)[C@H](CO)NC(=O)[C@H](CCC(N)=O)NC(=O)[C@H](CCCC)NC(=O)[C@H](CCCC)NC(=O)[C@@H](NC(=O)[C@@H](N)CCCCN)[C@@H](C)O)[C@@H](C)O)[C@@H](C)O)[C@@H](C)CC)C(=O)NCC(=O)N[C@H](C(=O)N[C@@H](CCCNC(=N)N)C(=O)O)[C@@H](C)CC [KU-5878-4Nle] (H-KT[Nle][Nle]QSGGTFGTF[Nle]AIG[Nle]GIR-OH; N-terminus and C-terminus assumed) | 110 (≈ 51.1 µM) | 90 (≈ 41.8 µM) | 100 (≈ 46.5 µM) | 100 (≈ 46.5 µM) | 110 (≈ 51.1 µM) | 90 (≈ 41.8 µM)
KTMMQRGGTFGTFMAIGMGIR [KU-5878-S63R] | 20 | 15 | 25 | 20 |  | 
KAMMQSGGTFGTFMAIGMGIR [KU-5878-T59A] | 150 | 120 | 140 | 130 |  | 
KTMMQSGG-FGTFMAIGMGIR [Peptide 5878-d66T] | 90 | 90 | 90 | 100 |  | 
KT-MQS-GTFGTFM-IG-GIR [5878-d60M, d64G, d72A, d75M] | 120 | 100 | 120 | 120 |  | 
KTMMQ-GGTFGTFMAIGMGIR [Peptide 5878-d63S] | 200 | 200 | 200 | 200 |  | 
-TMMQSGGTFGTFMAIGMGIR [Peptide 5878-d58K] | 300 | 300 | > 300 | 300 |  | 
KT-MQS-GTFGTF--IG-GIR [5878-d60M, d64G, d71M, d72A, d75M] | 200 | 200 | 200 | 200 |  | 
KTMMQSGGTFGTFMAIGMGIRQ [Peptide 5878-Q] | 150 | 180 | 180 | 180 |  | 
KTMMQSGGTFGTFMAIGMGTR [KU-5878-I77T] | > 300 | > 300 | > 300 | > 300 | >300 | >300
KTMMSSGGTFGTFMAIGMGIR [KU-5878-Q62S] | > 300 | > 300 | > 300 | > 300 |  | 
KTMMQSGGTWGTFMAIGMGIR [KU-5878-F67W] | 80 | 80 | 90 | 80 | 80 | 80
KTMMQSGGSFGTFMAIGMGIR [KU-5878-T66S] | > 300 | > 300 | > 300 | > 300 |  | 
KTMMASGGTFGTFMAIGMGIR [KU-5878-Q62A] | > 300 | > 300 | > 300 | > 300 |  | 
KTMMQSGGT-GTFMAIGMGIR [Peptide 5878-d67F] | 200 | 200 | 200 | 200 |  | 
KTMMQSGGTF-TFMAIGMGIR [Peptide 5878-d68G] | 25 | 20 | 25 | 18 |  | 
KTMMQAGGTFGTFMAIGMGIR [KU-5878-S63A] | 300 | 300 | > 300 | 300 |  | 
